Among the data in ChEMBL document CHEMBL3526022, “Which metabolites circulate?” (Drug Metab Dispos, 2013) are clearance, CL free and fraction unbound values, retold here.

Series [1] can be described thus: Systemic clearance in psychiatric patient treated with clozapine. The class given is ADME, organism-based. As to conditions: human, in vivo.
Series [2] is filed under the species Homo sapiens. As to the kind of experiment: Unbound hepatobiliary clearance in psychiatric patient treated with clozapine. It is filed as ADME, organism-based. The note with it: in vivo.
Series [3] can be described thus: Fraction unbound in psychiatric patient treated with clozapine. As to conditions: human, in vivo. The class given is ADME, organism-based.
The species entered for series [4] is Homo sapiens. As to the kind of experiment: Unbound renal clearance in psychiatric patient treated with clozapine. The note with it: in vivo. It is filed as ADME, organism-based, Kidney.

What is called clearance is a measure of how efficiently the substance is removed, as volume per time. The low end stands for a low capacity for elimination, the high end for a high capacity for elimination. For orientation: fraction unbound means the share of the substance not bound to proteins or other matrix. `Clc1ccc2c(c1)N=C(N1CCNCC1)c1ccccc1N2` [N-DESMETHYLCLOZAPINE] displayed a clearance in series [1] of 0.6 mL/min/kg. In addition, the CL free is 1.2 mL/min/kg in the series listed under Homo sapiens [2] and 5 mL/min/kg in the series filed under Homo sapiens [4]. This compound also came in with a fraction unbound in series [3] of 0.097.
